Source: US8124617B2, “Imidazopyridine compounds” (Takeda San Diego, Inc., priority 2005, dated 2012)

Experiments:
[1] = molecular target: T1, GST-hLGK1 (human hepatic GK) (Homo sapiens, UniProt P35557); assay: Measurement of GK activation value (Mant-ATP/Mant-ADP capillary electrophoresis, reaction rate); assay type: biochemical; conditions: concentration necessary for activation of 50% of the maximum activity value; 37° C., 60 min
T1 construct: made in house; host or cells: Escherichia coli BL21 (pGEX6P-2/hLGK1)
T1 sequence (P35557 1-464 isoform P35557-3): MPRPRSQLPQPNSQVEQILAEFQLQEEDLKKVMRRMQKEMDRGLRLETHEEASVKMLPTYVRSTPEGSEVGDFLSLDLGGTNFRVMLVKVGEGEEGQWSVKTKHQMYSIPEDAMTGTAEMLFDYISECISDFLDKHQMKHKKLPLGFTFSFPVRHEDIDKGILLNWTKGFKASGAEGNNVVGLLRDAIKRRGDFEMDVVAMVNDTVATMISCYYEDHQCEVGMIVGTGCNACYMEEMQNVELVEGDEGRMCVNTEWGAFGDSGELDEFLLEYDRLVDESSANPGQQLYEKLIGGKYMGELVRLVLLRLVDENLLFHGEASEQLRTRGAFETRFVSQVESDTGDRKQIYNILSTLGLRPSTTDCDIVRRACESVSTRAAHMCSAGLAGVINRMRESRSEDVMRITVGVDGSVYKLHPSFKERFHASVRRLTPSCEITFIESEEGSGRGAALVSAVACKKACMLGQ
Procedure: A plasmid DNA for expression of protein (GST-hLGK1) containing GST (Glutathione S-transferase) added to human hepatic GK amino terminal in Escherichia coli was prepared as follows.
BL21 strain (Stratagene) transformed with pGEX6P-2/hLGK1 obtained in Reference Example 1A was cultured with shaking in a 200 ml Erlenmeyer flask containing a 100 μg/ml ampicillin-containing LB medium (50 ml) at 37° C. for 14 hr. The culture medium (25 ml) was diluted with 100 μg/ml ampicillin-containing LB medium (225 ml), and further cultured with shaking in a 1 L Erlenmeyer flask at 37° C. for 1 hr. After cooling on ice the Erlenmeyer flask after culture, 100 mM Isopropyl-Thio-β-D-Galactopyranoside (IPTG) (125 μL) was added (final concentration 50 μM), and the mixture was cultured at 17° C. for 20 hr. After centrifugation of the culture medium, the obtained cells were ultrasonicated, and the object protein (GST-hLGK1) was purified from the supernatant using Glutathione Sepharose 4B (Amersham Biosciences).
A 50% solution (5 μL) of the test compound in dimethyl sulfoxide was added to each well of a 384 well black plate (Nalge Nunc). Then, 35 μL of a liquid obtained by diluting GST-hLGK1 obtained in Reference Example 2A with a measurement buffer (50 mM HEPES (pH 7.4), containing 200 mM KCl, 5 mM MgCl2, 2.5 mM DTT and 50 μM 2′-(or-3′)-O—(N-methylanthraniloyl)adenosine 5′-triphosphate (Mant-ATP) (Jena Bioscience)) was added to each well to 6 μg/mL.
Each well was stood at 37° C. for 10 min, and a 25 mM D-glucose solution (10 μL) was added to start the reaction.
Each well after the start of the reaction was stood at 37° C. for 60 min, and the reaction was quenched by adding 25 μL of a reaction quenching solution (200 mM HEPES (pH 7.4), containing 20 mM MgCl2, 200 mM EDTA, 0.03% Triton-X 100, 0.3% Coating 3 reagent (Caliper Life Sciences)).
Mant-ATP (substrate) and Mant-ADP (reaction resultant product) were separated from each well after quenching the reaction, with a microchip type capillary electrophoresis apparatus 250HTS (Caliper Life Sciences). The reaction rate [(peak height of reaction resultant product)/(peak height of reaction resultant product+peak height of substrate)×100(%)] was calculated from the ratio of the substrate peak height and the reaction resultant product peak height, which were obtained by fluorescence detection (excitation wavelength 355 nm, measurement wavelength 460 nm), and used as an index of the GK activity.
For the control, the reaction rate was calculated in the same manner as in the above except that “50% dimethyl sulfoxide solution” was used instead of the “50% solution of the test compound in dimethyl sulfoxide”.
A percentage obtained by dividing the reaction rate of the well added with the test compound (test compound addition group) by the reaction rate of the well added with a 50% dimethyl sulfoxide solution alone (control group) was taken as the GK activation value by the test compound, and the concentration of the test compound necessary for the activation of 50% of the maximum activity value is shown as an EC50 value.

EC50 [1] [nM] | melting point [°C] | Structure (SMILES)
130 | 136 to 137 | CC(C)Oc1cc(OCc2ccccc2)cc(-c2nc3cccnc3[nH]2)c1 [Example 2, 2-[3-(benzyloxy)-5-isopropoxyphenyl]-3H-imidazo[4,5-b]pyridine]
150 | 82 to 83 | CC(C)Oc1cc(OCCc2ccsc2)cc(-c2nc3cccnc3[nH]2)c1 [Example 3, 2-{3-isopropoxy-5-[2-(3-thienyl)ethoxy]phenyl}-3H-imidazo[4,5-b]pyridine]
1600 | 110 to 112 | CC(C)Oc1cc(OCCCc2cccnc2)cc(-c2nc3cccnc3[nH]2)c1 [Example 4, 2-[3-isopropoxy-5-(3-pyridin-3-ylpropoxy)phenyl]-3H-imidazo[4,5-b]pyridine]
2100 | – | COc1ccc(OCc2ccccc2)cc1-c1nc2cccnc2[nH]1 [Example 5, 2-(5-(benzyloxy)-2-methoxyphenyl)-3H-imidazo[4,5-b]pyridine]
440 | – | CC(C)Oc1ccc(OCc2ccccc2)cc1-c1nc2cc(-c3cccnc3)cnc2[nH]1 [Example 40, 2-[5-(benzyloxy)-2-isopropoxyphenyl]-6-pyridin-3-yl-3H-imidazo[4,5-b]pyridine]
1100 | – | CC(C)Oc1cc(OCc2ccccc2)cc(-c2nc3cc(-c4cccnc4)cnc3[nH]2)c1 [Example 61, 2-[3-(benzyloxy)-5-isopropoxyphenyl]-6-pyridin-3-yl-3H-imidazo[4,5-b]pyridine]
150 | – | CC(C)Oc1cc(OCc2ccccc2)ccc1-c1nc2cc(-c3cccc(F)c3)cnc2[nH]1 [Example 73, 2-[4-(benzyloxy)-2-isopropoxyphenyl]-6-(3-fluorophenyl)-3H-imidazo[4,5-b]pyridine]
730 | 167 to 168 | CC(C)Oc1ccc(OCc2ccccc2)cc1-c1nc2cc(CO)cnc2[nH]1 [Example 76, {2-[5-(benzyloxy)-2-isopropoxyphenyl]-3H-imidazo[4,5-b]pyridin-6-yl}methanol]
– | 170 to 171 | CC(C)Oc1ccc(OCc2ccccc2)cc1-c1nc2cc(C=O)cnc2[nH]1 [Example 77, 2-[5-(benzyloxy)-2-isopropoxyphenyl]-3H-imidazo[4,5-b]pyridine-6-carbaldehyde]
– | 167 to 168 | CC(C)Oc1ccc(OCc2ccccc2)cc1-c1nc2ccc(CO)nc2[nH]1 [Example 87, {2-[5-(benzyloxy)-2-isopropoxyphenyl]-3H-imidazo[4,5-b]pyridin-5-yl}methanol]

The next lines start with the compound.

Structure (SMILES) | EC50 [1] [nM] | melting point [°C]
COc1ccc(-c2cnc3[nH]c(-c4cc(OCc5ccccc5)ccc4OC(C)C)nc3c2)c(OC)c1 [Example 45, 2-[5-(benzyloxy)-2-isopropoxyphenyl]-6-(2,4-dimethoxyphenyl)-3H-imidazo[4,5-b]pyridine] | 280 | –
Cc1ccccc1-c1cnc2[nH]c(-c3cc(OCc4ccccc4)ccc3OC(C)C)nc2c1 [Example 47, 2-[5-(benzyloxy)-2-isopropoxyphenyl]-6-(2-methylphenyl)-3H-imidazo[4,5-b]pyridine] | 400 | –
COc1ccccc1-c1cnc2[nH]c(-c3cc(OCc4ccccc4)ccc3OC(C)C)nc2c1 [Example 48, 2-[5-(benzyloxy)-2-isopropoxyphenyl]-6-(2-methoxyphenyl)-3H-imidazo[4,5-b]pyridine] | 240 | –
CC(C)Oc1cc(OCc2ccccc2)ccc1-c1nc2cc(-c3ccc(F)cc3)cnc2[nH]1 [Example 50, 2-[4-(benzyloxy)-2-isopropoxyphenyl]-6-(4-fluorophenyl)-3H-imidazo[4,5-b]pyridine] | 290 | –
COc1ccc(-c2cnc3[nH]c(-c4ccc(OCc5ccccc5)cc4OC(C)C)nc3c2)cc1 [Example 51, 2-[4-(benzyloxy)-2-isopropoxyphenyl]-6-(4-methoxyphenyl)-3H-imidazo[4,5-b]pyridine] | 250 | –
CC(C)Oc1cc(OCc2ccccc2)ccc1-c1nc2cc(-c3ccccc3F)cnc2[nH]1 [Example 72, 2-[4-(benzyloxy)-2-isopropoxyphenyl]-6-(2-fluorophenyl)-3H-imidazo[4,5-b]pyridine] | 200 | –
CCOC(=O)c1cnc2[nH]c(-c3cc(OCc4ccccc4)ccc3OC(C)C)nc2c1 [Example 74, ethyl 2-[5-(benzyloxy)-2-isopropoxyphenyl]-3H-imidazo[4,5-b]pyridine-6-carboxylate] | – | 138 to 140
CC(C)CNCc1cnc2[nH]c(-c3cc(OCc4ccccc4)ccc3OC(C)C)nc2c1 [Example 78, N-({2-[5-(benzyloxy)-2-isopropoxyphenyl]-3H-imidazo[4,5-b]pyridin-6-yl}methyl)-2-methylpropan-1-amine] | – | 101 to 103
CC(C)Oc1ccc(OCc2ccccc2)cc1-c1nc2cc(CNCc3ccccc3)cnc2[nH]1 [Example 79, N-benzyl-1-{2-[5-(benzyloxy)-2-isopropoxyphenyl]-3H-imidazo[4,5-b]pyridin-6-yl}methaneamine] | – | 92 to 94
CC(C)Oc1ccc(OCc2ccccc2)cc1-c1nc2cc(CNCCOc3ccccc3)cnc2[nH]1 [Example 80, N-({2-[5-(benzyloxy)-2-isopropoxyphenyl]-3H-imidazo[4,5-b]pyridin-6-yl}methyl)-2-phenoxyethaneamine] | 820 | 67 to 68
COCCNCc1cnc2[nH]c(-c3cc(OCc4ccccc4)ccc3OC(C)C)nc2c1 [Example 81, N-({2-[5-(benzyloxy)-2-isopropoxyphenyl]-3H-imidazo[4,5-b]pyridin-6-yl}methyl)-2-methoxyethaneamine] | – | 80 to 81
COC(=O)CNCc1cnc2[nH]c(-c3cc(OCc4ccccc4)ccc3OC(C)C)nc2c1 [Example 82, methyl N-({2-[5-(benzyloxy)-2-isopropoxyphenyl]-3H-imidazo[4,5-b]pyridin-6-yl}methyl)glycinate] | 3700 | 69 to 71
CC(C)Oc1ccc(OCc2ccccc2)cc1-c1nc2cc(CNCC(=O)O)cnc2[nH]1 [Example 83, N-({2-[5-(benzyloxy)-2-isopropoxyphenyl]-3H-imidazo[4,5-b]pyridin-6-yl}methyl)glycine] | – | 182 to 184
CC(C)Oc1ccc(OCc2ccccc2)cc1-c1nc2ccc(C#N)nc2[nH]1 [Example 84, 2-[5-(benzyloxy)-2-isopropoxyphenyl]-3H-imidazo[4,5-b]pyridine-5-carbonitrile] | – | 214 to 215
